Measured values taken from patent publication US20070196510A1, “Method for treating resistant hypertension” (priority 2006, published 2007).
Values joined by “and” are separate entries in the source; they are usually repeats but may differ in a detail not shown here. Equal values may be shown once. “Also recorded” adds a separate entry of the source.

Columns and labels:
[1] = tested on: patients with resistant hypertension; assay: Same clinical study: 24-hour ambulatory blood pressure monitoring (ABPM); format: in vivo, human
Method: (§1) Co-primary efficacy endpoints were the changes from baseline through weeks 8 and 10 (i.e., doses of 150 and 300 mg) in trough sitting SBP. Blood pressure was measured at every study visit (baseline and weeks 2, 4, 6, 8 and 10) using standard sphygmomanometry. Secondary variables included 24-hour SBP as measured by ambulatory blood pressure monitoring (ABPM), percentage of patients who achieved SBP goal, trough sitting DBP, and urinary albumin to creatinine ratio. Ambulatory blood pressure monitoring was recorded once before randomization and repeated during the 24 hours immediately preceding the week 10 study visit. Urine samples for determination of albumin to creatinine ratio were collected at screening, baseline and week 10.
(§2) A nonlinear mixed effect model was used for the analysis of change in blood pressure, with comorbidity status as a covariate. This model used all observed blood pressure measurements with no imputation for missing values. Linear contrast statements were used to test the slope through a given time point to test the effect of the dose administered on that week. Estimates of treatment effect were obtained via least square means. Response rates were compared with logistic regression models at each blood pressure measurement with comorbidity status as a covariate; missing values were imputed with last observation carried forward for these models. Safety summaries include all patients who received ≧1 dose of blinded study medication.
In this randomized, double-blind, multi-center study, subjects underwent a 2-week placebo run-in, followed by 2:1 randomization to darusentan or placebo once daily for 10 weeks. Subjects were initiated on 10 mg of study drug and underwent dose-escalation every 2 weeks through doses of 50, 100 and 150 mg until a maximum dose of 300 mg was achieved. Change from baseline to week 10 in 24-hour ambulatory blood pressure (ABP) was a secondary efficacy endpoint. All available ABP data were included in the analyses (observed population).

[2] = tested on: patients with moderate hypertension; settings: 10 to 100 mg/day, no other antihypertensive drugs; cited from earlier work
[3] = tested on: patients with resistant hypertension; assay: Randomized, double-blind, placebo-controlled dose-titration study: sitting blood pressure by standard sphygmomanometry; format: in vivo, human; settings: for patients achieving SBP goal, % / patients achieving SBP goal, responders n: n = 76; for placebo-corrected change from baseline in trough sitting SBP: post-hoc
Method: In this randomized, double-blind, placebo-controlled, dose-titration study, 115 patients with resistant hypertension as defined by JNC 7 guidelines were randomized 2:1 to receive escalating doses of darusentan (10, 50, 100, 150 and 300 mg) or placebo once daily for 10 weeks. Darusentan dose was increased every 2 weeks.
Patients (35 to 85 years of age) with resistant hypertension as defined by the JNC 7 guidelines and who were treated with and adhered to full doses of JNC 7 recommended antihypertensives, including a diuretic and two or more antihypertensive medications from different drug classes, defined as (a) ACE inhibitors and angiotensin II receptor blockers, (b) beta-adrenergic receptor blockers, and (c) calcium channel blockers, were eligible to participate in the study. Patients also were required to have an estimated glomerular filtration rate (GFR)≧30 mL/min/1.73 m^2 during the screening period. Women of childbearing potential were required to have a negative serum pregnancy test at the screening visit and a negative urine pregnancy test at baseline, and they must have agreed to use a reliable double-barrier method of contraception throughout the study and for at least 4 weeks after the last study visit. Patients with an average sitting SBP≧180 mmHg, DBP≧110 mmHg, hemoglobin A1c>10%, hemoglobin concentration<10 g/dL, hematocrit<30%, serum thyroid stimulating hormone concentration>1.5× the upper limit of normal (ULN), or serum alanine aminotransferase (ALT) or aspartate aminotransferase (AST)>2×ULN during the screening period were excluded from the study. […] All patients provided written informed consent.
In this randomized, double-blind, placebo-controlled, dose-titration study, patients were randomized 2:1 to receive escalating doses of darusentan or placebo once daily in the morning for 10 weeks after completing a 2-week placebo run-in period (FIG. 1). Darusentan was initiated at a dose of 10 mg/day and escalated every 2 weeks at doses of 50, 100 and 150 mg/day until reaching a maximum of 300 mg/day. […] Patients were withdrawn from the study if a subsequent dose reduction was required. After completion of the 10-week treatment period, patients were withdrawn from study medication over a maximum of 2 weeks. This study was approved by an Institutional Review Board/Independent Ethics Committee and conducted in accordance with the principles of Good Clinical Practices and the revised Declaration of Helsinki.
as §1
as §2, with “medication. […]” for “medication.”

[4] = tested on: patients with resistant hypertension; assay: Same clinical study: urinary albumin to creatinine ratio; format: in vivo, human
Method: as §1

[5] = tested on: patients with resistant hypertension; assay: Same clinical study: safety and tolerability assessments; format: in vivo, human
Method: Physical examinations, vital sign measurements, clinical chemistry and hematologic laboratory tests, and electrocardiography were performed at the screening visit and periodically throughout the study. Blood samples were obtained at baseline and at weeks 4 and 10 during study drug treatment to monitor liver function. Additional blood samples were drawn from male patients at baseline and week 10 to assess follicle stimulating hormone, inhibin B, luteinizing hormone and testosterone levels. Male fertility was assessed by analysis of semen samples obtained within 2 weeks before baseline and within 2 weeks before week 10. Adverse events were monitored throughout the study.
as §2

COc1cc(OC)nc(O[C@H](C(=O)O)C(OC)(c2ccccc2)c2ccccc2)n1 [Darusentan, (+)-(S)-2-[(4,6-dimethoxy-2-pyrimidinyl)oxy]-3-methoxy-3,3-diphenylpropionic acid]
placebo-adjusted reduction in mean 24-hour diastolic ABP ([1]; 300 mg, week 10): 7.2±1.6 mmHg
placebo-adjusted 24-hour ambulatory DBP, change from baseline ([1]; ABPM at week 10): −7.2 mmHg and −7.2±1.6 mmHg
placebo-adjusted 24-hour ambulatory SBP, change from baseline ([1]; ABPM at week 10): −9.2 mmHg and −9.2±2.2 mmHg
blood pressure reduction over the 24-hour monitoring period ([1]; ABPM week 10, once daily dosing): maintained throughout the 24-hour monitoring period; also recorded: maintained over 24 hours; also recorded: remained consistently lower throughout the dosing interval
improvement in placebo-adjusted diurnal SBP ([1]; after 10 weeks, post-hoc analysis): 8.7 mmHg
placebo-adjusted change from baseline in mean ABPM-determined nocturnal DBP ([1]; week 10): −5.9 mm Hg
placebo-adjusted change from baseline in mean ABPM-determined nocturnal SBP ([1]; week 10): −9.9 mm Hg
decrease in day-time SBP ([1]; week 10, placebo 2.2±2.4): 10.9±1.4 mmHg
improvement in peak DBP as recorded by ABPM ([1]; week 10, placebo 2.3): 9.2 mmHg
decrease in night-time SBP ([1]; week 10, placebo 3.8±2.7): 11.9±1.6 mmHg
improvement in peak SBP as recorded by ABPM ([1]; week 10, placebo 6.0): 14.1 mmHg
Day/night SBP ratio ([1]; week 10, placebo 6.8%): 9.5%
effect on SBP and DBP by comparison with placebo [2]: significantly reduce SBP and DBP
sitting and standing blood pressure during withdrawal ([3]; 2-week withdrawal period after week 10, no significant difference vs placebo): increased
dose dependence of improvements in trough sitting SBP and DBP ([3]; 10 to 300 mg once daily, escalated every 2 weeks): dose dependent
reduction in peak sitting DBP ([3]; by week 10): 8.2 mmHg
reduction in peak sitting SBP ([3]; by week 10, placebo 9.9): 17.1 mmHg
average trough sitting DBP at end of treatment ([3]; study end (week 10), baseline 80.6): 73.9 mmHg
average trough sitting SBP at end of treatment ([3]; study end (week 10), baseline 146.3): 132.6 mmHg
patients achieving SBP goal, % ([3]; week 2 (10 mg)): 30.3%
patients achieving SBP goal, responders n ([3]; week 2 (10 mg)): 23
placebo-adjusted mean trough sitting DBP, change from baseline ([3]; week 4 (50 mg dose)): −4.9 mmHg
patients achieving SBP goal, % ([3]; week 4 (50 mg)): 47.4%
patients achieving SBP goal, responders n ([3]; week 4 (50 mg)): 36
patients achieving SBP goal, % ([3]; week 6 (100 mg)): 44.7%
patients achieving SBP goal, responders n ([3]; week 6 (100 mg)): 34
change from baseline in mean trough sitting SBP, difference between groups ([3]; week 8 (150 mg dose), vs placebo): not statistically significant
patients achieving SBP goal, % ([3]; week 8 (150 mg)): 42.1%
patients achieving SBP goal, responders n ([3]; week 8 (150 mg)): 32
placebo-adjusted mean trough sitting DBP, change from baseline ([3]; week 10 (300 mg dose), add-on therapy): −5.8 mmHg and −5.8±2.3 mmHg
placebo-adjusted mean trough sitting SBP, change from baseline ([3]; week 10 (300 mg dose), oral once daily, add-on to >=3 full-dose antihypertensives incl. diuretic): −11.6 mmHg and −11.6±3.3 mmHg
patients achieving SBP goal, % ([3]; week 10 (300 mg), JNC 7 goal): 49% and 48.7%
patients achieving SBP goal, responders n ([3]; week 10 (300 mg)): 37
placebo-corrected change from baseline in trough sitting SBP ([3]; week 10 (300 mg), subjects on >=4 antihypertensive drugs): −12.71 mmHg
placebo-corrected change from baseline in trough sitting SBP ([3]; week 10 (300 mg), subjects on exactly 3 antihypertensive drugs): −9.39 mmHg
subjects with decrease in SBP of at least 20 mmHg ([3]; week 10, post-hoc, placebo 26%): about 46%
subjects with change from baseline of at least 10 mmHg for SBP ([3]; week 10, post-hoc, placebo 46%): approximately 64%
subjects achieving SBP goal or a decrease in SBP of at least 10 mmHg ([3]; week 10, post-hoc, placebo 49%): 71%
subjects achieving SBP goal or a decrease in SBP of at least 10 mmHg ([3]; week 10, subjects on >=4 antihypertensive drugs, placebo 38%): 66%
subjects achieving SBP goal or a decrease in SBP of at least 10 mmHg ([3]; week 10, subjects on exactly 3 antihypertensive drugs, placebo 57%): 76%
geometric mean albumin to creatinine ratio at week 10 ([4]; all observed patients, n 65, baseline 12.6): 9.4 mg/g
decrease from baseline in geometric mean urinary albumin to creatinine ratio ([4]; all observed patients, placebo increased 6.2%): 25.3%
geometric mean albumin to creatinine ratio at week 10 ([4]; baseline ratio >30 mg/g, n 12, baseline 145.4): 73.6 mg/g
geometric mean albumin to creatinine ratio at week 10 ([4]; baseline ratio ≦30 mg/g, n 53, baseline 7.2): 5.9 mg/g
albumin to creatinine ratio, % change from baseline, mean (SE) ([4]; week 10, all observed patients, n 65): −25.3 (8.9) %
albumin to creatinine ratio, % change from baseline, mean (SE) ([4]; week 10, baseline ratio >30 mg/g, n 12): −49.4 (23.6) %
albumin to creatinine ratio, % change from baseline, mean (SE) ([4]; week 10, baseline ratio ≦30 mg/g, n 53): −18.4 (8.3) %
overall tolerability ([5]; 10 to 300 mg once daily for 10 weeks, add-on therapy): generally safe and well tolerated
decreases in hematocrit reported as adverse events ([5]; all events mild): 2 patients
decreases in hemoglobin reported as adverse events ([5]; all events mild): 2 patients
mean concentrations of ALT, AST, and γ-glutamyltransferase ([5]; both groups): decreased slightly from baseline
number of serious adverse events reported ([5]; darusentan group, n = 76): Five
patients reporting serious adverse events ([5]; darusentan group, n = 76): 4 patients
patients who discontinued the study because of an adverse event ([5]; darusentan group, n = 76): 4 patients
cases of severe edema reported ([5]; human, in vivo): one
deaths during the course of the study ([5]; human, in vivo): No patients died
effects on heart rate or liver enzyme levels ([5]; human, in vivo): no clinically relevant effects
intensity of peripheral edema ([5]; human, in vivo): largely mild to moderate
patients able to successfully escalate study medication dose to 300 mg/day ([5]; human, in vivo): 78%
patients with elevations in ALT or AST >2×ULN ([5]; human, in vivo): no patients; also recorded: no drug-related serious adverse events or elevations in serum aminotransferase concentrations>2×ULN
relation of serious adverse events to study medication ([5]; human, in vivo): None of these events were considered to be related to study medication; also recorded: no drug-related serious adverse events
Treatment-emergent adverse event: Arthralgia, patients % ([5]; n = 76): 3%
Treatment-emergent adverse event: Arthralgia, patients n ([5]; n = 76): 2
Treatment-emergent adverse event: Arthritis, patients n ([5]; n = 76): 0
Treatment-emergent adverse event: Diarrhea, patients % ([5]; n = 76): 1 (1) %
Treatment-emergent adverse event: Diarrhea, patients n ([5]; n = 76): 1 (1)
Treatment-emergent adverse event: Dizziness, patients % ([5]; n = 76): 7%
Treatment-emergent adverse event: Dizziness, patients n ([5]; n = 76): 5
Treatment-emergent adverse event: Gastroenteritis, patients % ([5]; n = 76): 5%
Treatment-emergent adverse event: Gastroenteritis, patients n ([5]; n = 76): 4
Treatment-emergent adverse event: Headache, patients % ([5]; n = 76): 11%
Treatment-emergent adverse event: Headache, patients n ([5]; n = 76): 8
Treatment-emergent adverse event: Nasopharyngitis, patients % ([5]; n = 76): 7%
Treatment-emergent adverse event: Nasopharyngitis, patients n ([5]; n = 76): 5
Treatment-emergent adverse event: Peripheral edema, patients % ([5]; n = 76): 17%
Treatment-emergent adverse event: Peripheral edema, patients n ([5]; n = 76): 13
Treatment-emergent adverse event: Sinusitis, patients % ([5]; n = 76): 8%
Treatment-emergent adverse event: Sinusitis, patients n ([5]; n = 76): 6
Treatment-emergent adverse event: Upper respiratory tract infection, patients % ([5]; n = 76): 5%
Treatment-emergent adverse event: Upper respiratory tract infection, patients n ([5]; n = 76): 4
liver function test results ([5]; vs placebo): comparable between treatment groups
heart rate, change from baseline ([5]; week 10, placebo 2.3±1.3): 0.4±0.9 beats per minute
